Results on 20 molecules are retold here after US20190152992A1, “BENZODIOXANE DERIVATIVES AND THEIR PHARMACEUTICAL USE” (Orion Corporation, priority 2016, published 2019).

For one test, the target named is T1, human alpha2A receptors (Homo sapiens, UniProt P08913).
T1 sequence (P08913 1-465): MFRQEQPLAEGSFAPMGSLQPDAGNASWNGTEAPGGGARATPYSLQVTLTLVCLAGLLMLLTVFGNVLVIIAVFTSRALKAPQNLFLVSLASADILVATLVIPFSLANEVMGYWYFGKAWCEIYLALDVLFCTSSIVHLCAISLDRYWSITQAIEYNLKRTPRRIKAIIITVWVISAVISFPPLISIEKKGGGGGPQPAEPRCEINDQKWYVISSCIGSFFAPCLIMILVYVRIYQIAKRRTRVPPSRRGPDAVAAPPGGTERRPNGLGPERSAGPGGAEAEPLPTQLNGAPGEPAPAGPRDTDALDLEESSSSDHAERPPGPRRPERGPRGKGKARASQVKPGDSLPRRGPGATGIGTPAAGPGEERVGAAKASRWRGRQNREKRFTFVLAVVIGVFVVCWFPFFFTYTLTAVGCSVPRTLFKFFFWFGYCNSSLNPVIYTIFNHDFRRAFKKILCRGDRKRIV
As to the kind of experiment: cell-based.

The next test has as its target T2, human alpha2C receptors (Homo sapiens, UniProt P18825).
T2 sequence (P18825 1-462): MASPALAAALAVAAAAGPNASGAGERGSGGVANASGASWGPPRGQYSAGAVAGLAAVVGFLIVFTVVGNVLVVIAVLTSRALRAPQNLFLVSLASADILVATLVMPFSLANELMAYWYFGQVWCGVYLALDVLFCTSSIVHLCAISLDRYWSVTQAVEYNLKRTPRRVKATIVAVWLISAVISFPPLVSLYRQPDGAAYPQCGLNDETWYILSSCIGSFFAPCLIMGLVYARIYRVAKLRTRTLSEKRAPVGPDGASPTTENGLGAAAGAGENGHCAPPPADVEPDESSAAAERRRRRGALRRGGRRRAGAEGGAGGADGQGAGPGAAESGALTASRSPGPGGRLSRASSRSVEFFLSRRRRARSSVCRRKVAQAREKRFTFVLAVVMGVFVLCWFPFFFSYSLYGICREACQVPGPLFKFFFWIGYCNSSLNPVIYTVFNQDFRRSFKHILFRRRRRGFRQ
As to the kind of experiment: Determination of alpha2C antagonistic activity in vitro (FLIPR calcium assay). As to conditions: for Kb: Alpha 2C Adrenaline Kb, Kb calculated from IC50 with the Cheng-Prusoff equation, adrenaline as agonist, CHO cells, human alpha2C.

Structures can show the parent of a compound that is named as a salt.

Experimental for human alpha2A receptors: Experiment 1: Determination of alpha2A and alpha2C Antagonistic Activity In Vitro
The growth medium was removed and the cells were incubated with the test compounds and the FLIPR Calcium 6 Assay reagent (Molecular Devices, CA, USA) for 2 h at 37° C. in dark. The test compounds (concentrations in cells 100 pM-10 μM) were dissolved in Probenecid-Ringer consisting of 150 mM NaCl, 3 mM KCl, 1.2 mM MgCl2, 1 mM CaCl2, 5 mM glucose, 20 mM HEPES and 2.5 mM probenecid (pH 7.4 adjusted with 1.0 M NaOH). […] All experiments were performed at 37° C. For agonism measurements the test compounds dissolved in Probenecid-Ringer were applied by FLIPR Tetra at 15 s time point. In order to determine antagonism, the cells were stimulated either with 100 nM adrenaline or noradrenaline and the test compounds were added to the cells 2 h before the experiment with the FLIPR Calcium 6 Assay reagent. […] Typically, there were four replicates at each concentration and six different dose levels. […] The minimum fluorescence value subtracted from the maximum value for each well was used in the calculations. ScreenWorks version 4.0 software was used for analyzing the results. Fitting of the antagonist dose-response results was performed with the free Hill equation and the IC50 values were fitted with IDBS XE software using model 200: y=(A+(B/(1+((x/C)̂D)))), where A is the curve maximum, B the curve minimum and C equals the EC50 value. D is slope factor (Hill). Kb was calculated with the Cheng-Prusoff equation Kb=A/((B/C)+1), where A is the IC50 of antagonist, B the concentration of agonist and C the EC50 of the agonist.

Regarding `O=C1C(=O)N([C@H]2CCCN(C[C@H]3COc4ccccc4O3)C2)C(=O)N1C1CCNCC1` [example 137, 1-((S)-1-(((S)-2,3-Dihydrobenzo[b][1,4]dioxin-2-yl)methyl)piperidin-3-yl)-3-(piperidin-4-yl)imidazolidine-2,4,5-trione dihydrochloride], the IC50 against human alpha2A receptors was over 10000 nM; at human alpha2C receptors, 5.5 nM. Besides, the Kb on human alpha2A receptors is over 449 nM; at human alpha2C receptors, 0.554 nM.

On human alpha2A receptors, `O=C1CN(C2CC2)C(=O)N1[C@H]1CCCN(C[C@H]2COc3ccccc3O2)C1` [example 119, 1-Cyclopropyl-3-((S)-1-(((S)-2,3-dihydrobenzo[b][1,4]dioxin-2-yl)methyl)piperidin-3-yl)imidazolidine-2,4-dione] returned an IC50 of over 10000 nM and a Kb of over 449 nM. Moreover, on human alpha2C receptors, the IC50 came to 17.5 nM and the Kb is 1.76 nM.

In the case of `CC(=O)N1CCC(N2C(=O)C(=O)N([C@H]3CCCN(C[C@H]4COc5ccccc5O4)C3)C2=O)CC1` [example 139, 1-(1-Acetylpiperidin-4-yl)-3-((S)-1-(((S)-2,3-dihydrobenzo[b][1,4]-dioxin-2-yl)methyl)piperidin-3-yl)imidazolidine-2,4,5-trione], on human alpha2A receptors, half-maximal inhibition (IC50) required 9830 nM and the Kb came out at 441 nM. Further, on human alpha2C receptors, the IC50 was 0.113 nM and the Kb was 0.012 nM.

As to `CNCc1nc2ccc(Cl)cc2n1[C@H]1CCCN(C[C@H]2COc3ccccc3O2)C1` [example 153, 1-(6-Chloro-1-((S)-1-(((S)-2,3-dihydrobenzo[b][1,4]dioxin-2-yl)methyl)piperidin-3-yl)-1H-benzo[d]imidazol-2-yl)-N-methylmethanamine], at human alpha2A receptors, the IC50 is over 10000 nM and the Kb is over 449 nM. Further, on human alpha2C receptors, the IC50 amounted to 3580 nM and the Kb was 361 nM.

On human alpha2A receptors, `Fc1ccc2c(c1)ncn2[C@H]1CCCN(C[C@H]2COc3ccccc3O2)C1` [example 87, 1-((S)-1-(((S)-2,3-Dihydrobenzo[b][1,4]dioxin-2-yl)methyl)piperidin-3-yl)-5-fluoro-1H-benzo[d]imidazole] came in with an IC50 of over 10000 nM and a Kb of over 449 nM. Further, on human alpha2C receptors, the half-inhibitory concentration (IC50) is under 0.1 nM and the Kb is under 0.01 nM.

Turning to `O=C1CN(CC2CC2)C(=O)N1[C@H]1CCCN(C[C@H]2COc3ccccc3O2)C1` [example 108, 1-(Cyclopropylmethyl)-3-((S)-1-(((S)-2,3-dihydrobenzo[b][1,4]dioxin-2-yl)methyl)piperidin-3-yl)imidazolidine-2,4-dione], at human alpha2A receptors, the 50% inhibitory concentration (IC50) is over 10000 nM and the Kb was over 449 nM. On human alpha2C receptors, the IC50 was 1.25 nM and the Kb is 0.13 nM.

On human alpha2A receptors, `CCN1CC(=O)N([C@H]2CCCN(C[C@H]3COc4ccccc4O3)C2)C1=O` [example 105, 3-((S)-1-(((S)-2,3-Dihydrobenzo[b][1,4]dioxin-2-yl)methyl)-piperidin-3-yl)-1-ethylimidazolidine-2,4-dione] showed an IC50 of over 10000 nM and a Kb of over 449 nM. On human alpha2C receptors, the half-maximal inhibitory concentration (IC50) stood at 3.27 nM and the Kb is 0.33 nM.

At human alpha2A receptors, `O=C1C2CC2(c2ccccc2)C(=O)N1[C@H]1CCCN(C[C@H]2COc3ccccc3O2)C1` (stereo partly drawn) [example 37, 3-((S)-1-(((S)-2,3-Dihydrobenzo[b][1,4]dioxin-2-yl)methyl)piperidin-3-yl)-1-phenyl-3-azabicyclo[3.1.0]hexane-2,4-dione] came in with an IC50 of over 10000 nM and a Kb of over 449 nM. Further, at human alpha2C receptors, the IC50 is under 0.01 nM and the Kb is under 0.001 nM.

On human alpha2A receptors, `O=C1CN(Cc2ccccc2)C(=O)N1[C@H]1CCCN(C[C@H]2COc3ccccc3O2)C1` [example 118, 1-Benzyl-3-((S)-1-(((S)-2,3-dihydrobenzo[b][1,4]dioxin-2-yl)methyl)-piperidin-3-yl)imidazolidine-2,4-dione] came in with an IC50 of 1120 nM and a Kb of 50 nM. For the same molecule, on human alpha2C receptors, the IC50 is under 0.1 nM and the Kb was under 0.01 nM.

On human alpha2A receptors, `CC1(C)CCN([C@H]2CCCN(C[C@H]3COc4ccccc4O3)C2)S1(=O)=O` [example 162, 2-((S)-1-(((S)-2,3-Dihydrobenzo[b][1,4]dioxin-2-yl)methyl)piperidin-3-yl)-5,5-dimethylisothiazolidine 1,1-dioxide] returned an IC50 of over 10000 nM and a Kb of over 449 nM. In addition, on human alpha2C receptors, the IC50 amounted to 6.13 nM and the Kb is 0.62 nM.

On human alpha2A receptors, `O=C1C(=O)N([C@H]2CCCN(C[C@H]3COc4ccccc4O3)C2)C(=O)N1C1CCCCC1` [example 126, 1-Cyclohexyl-3-((S)-1-(((S)-2,3-dihydrobenzo[b][1,4]dioxin-2-yl)methyl)piperidin-3-yl)imidazolidine-2,4,5-trione] showed an IC50 of 3890 nM and a Kb of 175 nM. For the same molecule, on human alpha2C receptors, the IC50 was 0.01 nM and the Kb is 0.001 nM.

On human alpha2A receptors, `COc1ccc2c(c1)C(=O)N([C@H]1CCCN(C[C@H]3COc4ccccc4O3)C1)C2` [example 70, 2-((S)-1-(((S)-2,3-Dihydrobenzo[b][1,4]dioxin-2-yl)methyl)piperidin-3-yl)-6-methoxyisoindolin-1-one] displayed an IC50 of over 10000 nM and a Kb of over 449 nM. In addition, on human alpha2C receptors, the half-maximal inhibitory concentration (IC50) turned out to be 0.905 nM and the Kb was 0.091 nM.

At human alpha2A receptors, `CN1C(=O)N([C@H]2CCCN(C[C@H]3COc4ccccc4O3)C2)CC1(C)C` [example 51, 1-((S)-1-(((S)-2,3-Dihydrobenzo[b][1,4]dioxin-2-yl)methyl)piperidin-3-yl)-3,4,4-trimethylimidazolidin-2-one] yielded a half-inhibitory concentration (IC50) of over 10000 nM and a Kb of over 449 nM. Further, on human alpha2C receptors, the IC50 was 0.11 nM and the Kb is 0.01 nM.

Consider `O=c1[nH]c2cc(F)ccc2n1[C@H]1CCCN(C[C@H]2COc3ccccc3O2)C1` [example 88, 1-((S)-1-(((S)-2,3-Dihydrobenzo[b][1,4]dioxin-2-yl)methyl)piperidin-3-yl)-5-fluoro-1H-benzo[d]imidazol-2(3H)-one], for which, on human alpha2A receptors, the IC50 was over 10000 nM and the Kb is over 449 nM. In addition, at human alpha2C receptors, the IC50 was under 0.1 nM and the Kb was under 0.01 nM.

`CC1C(=O)N([C@H]2CCCN(C[C@H]3COc4ccccc4O3)C2)C(=O)N1C` (stereo partly drawn) [example 115, 3-((S)-1-(((S)-2,3-Dihydrobenzo[b][1,4]dioxin-2-yl)methyl)-piperidin-3-yl)-1,5-dimethylimidazolidine-2,4-dione]: on human alpha2A receptors, the IC50 is over 10000 nM and the Kb is over 449 nM. Further, on human alpha2C receptors, the half-maximal inhibitory concentration (IC50) was found to be 2.08 nM and the Kb was 0.21 nM.

As for `CCc1nc2cccnc2n1[C@H]1CCCN(C[C@H]2COc3ccccc3O2)C1` [example 159, 3-((S)-1-(((S)-2,3-Dihydrobenzo[b][1,4]dioxin-2-yl)methyl)piperidin-3-yl)-2-ethyl-3H-imidazo[4,5-b]pyridine], on human alpha2A receptors, the IC50 was over 10000 nM and the Kb was over 449 nM. At human alpha2C receptors, the IC50 came to 0.01 nM and the Kb is 0.001 nM.

Take `O=C1C(=O)N([C@H]2CCCN(C[C@H]3COc4ccccc4O3)C2)C(=O)N1Cc1cccnc1` [example 143, 1-((S)-1-(((S)-2,3-Dihydrobenzo[b][1,4]dioxin-2-yl)methyl)piperidin-3-yl)-3-(pyridin-3-ylmethyl)imidazolidine-2,4,5-trione]: the figures for the IC50 on human alpha2A receptors and at human alpha2C receptors were over 10000 nM and 1.38 nM, respectively. Besides, the results for the Kb at human alpha2A receptors and on human alpha2C receptors were over 449 nM and 0.14 nM, respectively.

At human alpha2A receptors, `O=C1c2scnc2CN1[C@H]1CCCN(C[C@H]2COc3ccccc3O2)C1` [example 79, 5-((S)-1-(((S)-2,3-Dihydrobenzo[b][1,4]dioxin-2-yl)methyl)piperidin-3-yl)-4H-pyrrolo[3,4-d]thiazol-6(5H)-one] registered an IC50 of over 10000 nM and a Kb of over 449 nM. For the same molecule, at human alpha2C receptors, the IC50 came to 5.4 nM and the Kb was 0.544 nM.

Turning to `CN1C(=O)C(=O)N([C@H]2CCCN(C[C@H]3COc4ccccc4O3)C2)C1=O` [example 138, 1-((S)-1-(((S)-2,3-Dihydrobenzo[b][1,4]dioxin-2-yl)methyl)piperidin-3-yl)-3-methylimidazolidine-2,4,5-trione], the IC50 is over 10000 nM against human alpha2A receptors and 4.35 nM on human alpha2C receptors. The Kb on human alpha2A receptors was over 449 nM; at human alpha2C receptors, 0.438 nM.

On human alpha2A receptors, `COCc1nc2ccccc2n1[C@H]1CCCN(C[C@H]2COc3ccccc3O2)C1` [example 151, 1-((S)-1-(((S)-2,3-Dihydrobenzo[b][1,4]dioxin-2-yl)methyl)piperidin-3-yl)-2-(methoxymethyl)-1H-benzo[d]imidazole] came in with an IC50 of 6160 nM and a Kb of 276 nM. Moreover, on human alpha2C receptors, the IC50 was under 0.1 nM and the Kb is under 0.01 nM.

By IC50 is commonly meant the concentration that gives 50% inhibition.
